The text below walks through data of patent publication US8287921B1, “Formulations against cutaneous leishmaniasis” (priority 2011, dated 2012).

Converted amounts (≈) assume the structure as drawn.

One assay concerns Leishmania promastigotes. In words: In vitro leishmanicidal assay. The format is cell-based. The settings on record: 72 hrs, 22-25° C.
Assay [1] has as its system 3T3 cell lines (Normal Fibroblast cell). Put plainly: Cytotoxic activity against 3T3 cell lines (MTT assay). The format is cell-based, Mouse. The note with it: 72 h, 1-100 μg/mL. Here is the method:
Cytotoxic activity of compounds was evaluated in 96-well flat-bottomed micro plates by using the standard MTT (3-[4,5-dimethylthiazole-2-yl]-2,5-diphenyl-tetrazolium bromide) colorimetric assay1. For this purpose, 3T3 (Mouse fibroblast) were cultured in Dulbecco's Modified Eagle's Medium, supplemented with 5% of foetal bovine serum (FBS), 100 IU/mL of penicillin and 100 μg/mL of streptomycin in 25 cm^3 flask, and kept in 5% CO2 incubator at 37° C. Exponentially growing cells were harvested, counted with haemocytometer and diluted with a particular medium. Cell culture with the concentration of 1×10^5 cells/mL was prepared and introduced (100 μL/well) into 96-well plates. After overnight incubation, medium was removed and 200 μL of fresh medium was added with different concentrations of compounds (1-100 μg/mL). After 72 h, 50 μL MTT (2 mg/mL) was added to each well and incubated further for 4 hrs. Subsequently, 100 μL of DMSO was added to each well. The extent of MTT reduction to formazan within cells was calculated by measuring the absorbance at 570 nm, using a microplate ELISA reader (Spectra Max plus, Molecular Devices, CA, USA). The cytotoxicity was recorded as concentration causing 50% growth inhibition for 3T3 cells.

Procedure for Leishmania promastigotes: Leishmania promastigotes were grown in bulk early in modified NNN biphasic medium using normal physiological saline. Leishmania parasite promastigotes were cultured with RPMI 1640 medium (Sigma, St. Louis, USA) supplemented with 10% heat inactivated foetal Calf serum (FCS) (PAA Laboratories GmbH, Austria) Parasites at log phase were centrifuged at 2000 rpm for 10 minutes, and washed three times with saline at same speed and time. Parasites were diluted with fresh culture medium to a final density of 1×10^6 cells/ml.
In a 96-well micro titer plate, medium was added in different wells, 20 μl of the experimental compound was added in medium and serially diluted. 100 μl of parasite culture was added in all wells. Two rows were left for negative and positive control. Negative controls receives medium while the positive control contains varying concentrations of standard antileishmanial compound e.g., Amphotericin B (MP Biomedical Inc.), Pantamidine (ICN Biomedical Inc.). The plate was incubated between 22-25° C. for 72 hrs. […] All assays were run in duplicate (5).

As to `C[C@@H]1[C@H](O)[C@@H](C)/C=C/C=C/C=C/C=C/C=C/C=C/C=C/[C@H](O[C@@H]2O[C@H](C)[C@@H](O)[C@H](N)[C@@H]2O)C[C@@H]2O[C@](O)(C[C@@H](O)C[C@@H](O)[C@H](O)CC[C@@H](O)C[C@@H](O)CC(=O)O[C@H]1C)C[C@H](O)[C@H]2C(=O)O` [Amphotericin B], in the assay on Leishmania promastigotes, the “In vitro Leishmanicidal activity IC50 ± S.D” value came out at 0.12 ± 0.10 µg/mL.
With `C[C@@H]1C[C@@H]([C@H](O)CC2CC(=O)NC(=O)C2)C(=O)[C@@H](C)C1` [Cyclohexamide], in assay [1], the “IC50 ± S.D. 3T3 cell lines” value stood at 0.26 ± 0.04 µg/mL (≈ 0.924 µM).
Regarding `N=C(N)c1ccc(OCCCCCOc2ccc(C(=N)N)cc2)cc1` [Pentamidine], the half-inhibitory concentration (IC50) in the assay on Leishmania promastigotes (Leishmania, read-out: In vitro Leishmanicidal activity IC50 ± S.D) was determined as 5.13 ± 0.02 µg/mL (≈ 15.1 µM).
